This is an account of results in ChEMBL document CHEMBL1201862, “PubChem BioAssay data set” (2004).

Test systems include ACHN; CAKI-1; HL-60; HOP-92; Hs-578T; K562; LOX IMVI; MDA-MB-231; Malme-3M; NCI/ADR-RES; RPMI-8226; RXF 393; SF-295; SK-MEL-2; SK-OV-3; SN12C; SR; SW-620; U-251; UACC-257.
What all share (assay): inhibition of tumour cell growth, NCI panel, 48 h

Structures are written as SMILES.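 Exposure lasted 48 hours, with cells grown in 96-well plates and compounds tested at five concentrations. At the GI50, growth is halved.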 The source made the active and inactive calls. Cut-off read from the data, not from the text of the source: active = GI50 up to about 1.1 µM and inactive = higher.

For `C=C(C)C1CC=C(C)C2(C1)OCC(C)(C)C(C)O2` (stereo not given), the GI50 with ACHN is 18.3 µM (inactive); with CAKI-1, 16.3 µM (inactive); in the experiment with HL-60, 15 µM (inactive); in the experiment with HOP-92, 11.2 µM (inactive); in the experiment on Hs-578T, 27.9 µM (inactive); in the experiment with K562 it was 18.5 µM (inactive). Moreover, the GI50 is 17.5 µM (inactive) with LOX IMVI; 21.7 µM (inactive) in the experiment on MDA-MB-231; 14.5 µM (inactive) in the experiment with Malme-3M; 17.9 µM (inactive) with NCI/ADR-RES; 17.9 µM (inactive) with RPMI-8226; 13.7 µM (inactive) with RXF 393. The GI50 was 19.5 µM (inactive) in the experiment on SF-295; 17.8 µM (inactive) in the experiment with SK-MEL-2; 23.4 µM (inactive) with SK-OV-3; 18.2 µM (inactive) in the experiment with SN12C; 18.2 µM (inactive) with SR; 19.1 µM (inactive) with SW-620. Moreover, the GI50 in the experiment on U-251 is 16.7 µM (inactive); with UACC-257, 21.1 µM (inactive).
In the case of `CCCC(=O)OCC1OC(n2cc(F)c(=O)[nH]c2=O)CC1O` (stereo not given), the GI50 in the experiment on ACHN was 0.0395 µM (active); in the experiment on CAKI-1, 0.0402 µM (active); in the experiment on HL-60 it was 0.614 µM (active); with HOP-92 it was 1.1 µM (active); with Hs-578T, 3.85 µM (inactive); with K562, 1.87 µM (inactive). Moreover, the GI50 is 0.0303 µM (active) with LOX IMVI; > 9.14 µM (inactive) in the experiment on MDA-MB-231; > 5.06 µM (inactive) in the experiment with Malme-3M; 1.7 µM (inactive) in the experiment on NCI/ADR-RES; 0.429 µM (active) in the experiment on RPMI-8226; > 10 µM (inactive) in the experiment on RXF 393. In addition, the GI50 is 0.0731 µM (active) in the experiment on SF-295; > 9.64 µM (inactive) in the experiment on SK-MEL-2; > 4.14 µM (inactive) in the experiment with SK-OV-3; 0.181 µM (active) in the experiment with SN12C; 0.0265 µM (active) in the experiment on SR; > 10 µM (inactive) with SW-620. Moreover, the GI50 is 1.79 µM (inactive) in the experiment on U-251 and 4.1 µM (inactive) with UACC-257.
On to `CN(C)CCCCCNc1c2ccccc2nc2cccc([N+](=O)[O-])c12`, for which the GI50 is 0.000766 µM (active) in the experiment with ACHN; 0.00229 µM (active) in the experiment with CAKI-1; 0.00143 µM (active) in the experiment on HL-60; 0.00329 µM (active) in the experiment on HOP-92; 0.00197 µM (active) in the experiment with Hs-578T; 0.000986 µM (active) in the experiment with K562. The GI50 is 0.00289 µM (active) in the experiment on LOX IMVI; 0.00032 µM (active) in the experiment on MDA-MB-231; 0.00185 µM (active) in the experiment on Malme-3M; 0.00119 µM (active) with NCI/ADR-RES; 0.00042 µM (active) in the experiment on RPMI-8226; 0.0037 µM (active) with RXF 393. In addition, the GI50 was 0.00105 µM (active) in the experiment with SF-295; 0.00107 µM (active) in the experiment on SK-MEL-2; 0.00607 µM (active) in the experiment on SK-OV-3; 0.00186 µM (active) in the experiment with SN12C; 0.000447 µM (active) with SR; 0.000877 µM (active) with SW-620. The GI50 in the experiment with U-251 was 0.0011 µM (active); with UACC-257 it was 0.00918 µM (active).
As for `O=[N+]([O-])C(=C(Sc1ccccc1)Sc1ccccc1)C(Cl)=C(Cl)Cl`, the GI50 with ACHN is 0.248 µM (active); with CAKI-1, 0.476 µM (active); in the experiment with HL-60, 0.141 µM (active); with HOP-92, 1.29 µM (inactive); in the experiment with Hs-578T it was 3.32 µM (inactive); in the experiment on K562, 0.0923 µM (active). Besides, the GI50 in the experiment with LOX IMVI is 0.177 µM (active); in the experiment on MDA-MB-231, 0.188 µM (active); in the experiment on Malme-3M it was 0.458 µM (active); in the experiment with NCI/ADR-RES, 0.652 µM (active); in the experiment on RPMI-8226, 0.0292 µM (active); in the experiment on RXF 393, 0.413 µM (active). In addition, the GI50 is 11.9 µM (inactive) in the experiment with SF-295; 2.26 µM (inactive) in the experiment on SK-MEL-2; 10.1 µM (inactive) in the experiment on SK-OV-3; 0.65 µM (active) with SN12C; 0.0975 µM (active) in the experiment on SR; < 0.0391 µM (active) in the experiment with SW-620. The GI50 is 1.53 µM (inactive) in the experiment on U-251 and 0.323 µM (active) with UACC-257.
For `C=CCN(C(C)=O)c1cc(OCc2ccccc2)c2c(c1)c(C)cn2S(=O)(=O)c1ccccc1`, the GI50 was 4.36 µM (inactive) in the experiment with ACHN; 6.59 µM (inactive) in the experiment with CAKI-1; 4.89 µM (inactive) in the experiment with HL-60; 5.96 µM (inactive) in the experiment on HOP-92; 7.4 µM (inactive) with Hs-578T; 2.83 µM (inactive) with K562. The GI50 in the experiment on LOX IMVI is 5.07 µM (inactive); in the experiment on MDA-MB-231, 6.98 µM (inactive); in the experiment with Malme-3M, 6.58 µM (inactive); in the experiment with NCI/ADR-RES, 4.95 µM (inactive); in the experiment with RPMI-8226, 2.47 µM (inactive); in the experiment on RXF 393, 4.74 µM (inactive). In addition, the GI50 is 3.94 µM (inactive) in the experiment on SF-295; 3.11 µM (inactive) with SK-MEL-2; 16.1 µM (inactive) in the experiment with SK-OV-3; 5.52 µM (inactive) with SN12C; 0.0566 µM (active) with SR; 5.46 µM (inactive) with SW-620. In addition, the results for the GI50 in the experiment on U-251 and with UACC-257 were 4.98 µM (inactive) and 5.11 µM (inactive), respectively.
Turning to `O=C1C(Br)=CC2(C=C1Br)CCNC1=C2C(=O)c2cccnc2C1=O`, the GI50 in the experiment on ACHN is 17 µM (inactive); with CAKI-1 it was 17.4 µM (inactive); in the experiment with HL-60 it was 3.49 µM (inactive); in the experiment with HOP-92 it was 16 µM (inactive); in the experiment on Hs-578T, 5.42 µM (inactive); with K562, 2.44 µM (inactive). In addition, the GI50 with LOX IMVI is 5.48 µM (inactive); in the experiment on MDA-MB-231 it was 14.1 µM (inactive); in the experiment with Malme-3M, 9.46 µM (inactive); with NCI/ADR-RES, 20.8 µM (inactive); with RPMI-8226, 8.93 µM (inactive); with RXF 393, 4.92 µM (inactive). Moreover, the GI50 was 8.75 µM (inactive) in the experiment on SF-295; 2.69 µM (inactive) in the experiment with SK-MEL-2; 16.9 µM (inactive) in the experiment with SK-OV-3; 12.5 µM (inactive) in the experiment on SN12C; 2.93 µM (inactive) in the experiment on SR; 11.5 µM (inactive) with SW-620. For the same compound, the GI50 was 17.6 µM (inactive) with U-251 and 8.36 µM (inactive) in the experiment with UACC-257.
